ChEMBL document CHEMBL3991601, “The target landscape of clinical kinase drugs” (Science, 2017)
pKd: −log10 of the molar value. Activity calls are given as the source filed them. For most assays here, no stated cut-off is given here; in the data, actives have a measured Kd and inactives only a lower limit.

Experiments:
[1] = biological target: T1, Interleukin-1 receptor-associated kinase 3 (Homo sapiens, UniProt Q9Y616)
T1 sequence (Q9Y616 whole entry): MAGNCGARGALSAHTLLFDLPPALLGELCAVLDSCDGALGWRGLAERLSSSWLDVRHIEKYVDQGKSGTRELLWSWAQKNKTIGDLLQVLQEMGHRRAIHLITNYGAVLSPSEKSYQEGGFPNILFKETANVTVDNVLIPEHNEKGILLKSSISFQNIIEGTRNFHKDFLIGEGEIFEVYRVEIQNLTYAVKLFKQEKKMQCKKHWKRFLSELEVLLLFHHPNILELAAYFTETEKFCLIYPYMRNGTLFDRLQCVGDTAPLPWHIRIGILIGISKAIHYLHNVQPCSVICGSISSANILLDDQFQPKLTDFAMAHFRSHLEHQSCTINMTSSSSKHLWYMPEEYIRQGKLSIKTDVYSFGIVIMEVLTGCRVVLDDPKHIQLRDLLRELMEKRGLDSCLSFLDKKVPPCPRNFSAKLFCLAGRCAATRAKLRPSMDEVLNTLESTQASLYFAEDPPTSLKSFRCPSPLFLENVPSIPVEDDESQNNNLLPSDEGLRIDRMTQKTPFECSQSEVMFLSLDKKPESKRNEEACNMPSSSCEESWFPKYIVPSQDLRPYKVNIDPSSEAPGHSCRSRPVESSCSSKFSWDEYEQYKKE

[2] = biological target: Atypical kinase COQ8A, mitochondrial (Homo sapiens, UniProt Q8NI60)
[3] = biological target: Tyrosine-protein kinase Fyn (Homo sapiens, UniProt P06241)
[4] = biological target: Tyrosine-protein kinase ABL2 (Homo sapiens, UniProt P42684)
[5] = biological target: T2, Mitogen-activated protein kinase kinase kinase 5 (Homo sapiens, UniProt Q99683)
T2 sequence (Q99683 whole entry): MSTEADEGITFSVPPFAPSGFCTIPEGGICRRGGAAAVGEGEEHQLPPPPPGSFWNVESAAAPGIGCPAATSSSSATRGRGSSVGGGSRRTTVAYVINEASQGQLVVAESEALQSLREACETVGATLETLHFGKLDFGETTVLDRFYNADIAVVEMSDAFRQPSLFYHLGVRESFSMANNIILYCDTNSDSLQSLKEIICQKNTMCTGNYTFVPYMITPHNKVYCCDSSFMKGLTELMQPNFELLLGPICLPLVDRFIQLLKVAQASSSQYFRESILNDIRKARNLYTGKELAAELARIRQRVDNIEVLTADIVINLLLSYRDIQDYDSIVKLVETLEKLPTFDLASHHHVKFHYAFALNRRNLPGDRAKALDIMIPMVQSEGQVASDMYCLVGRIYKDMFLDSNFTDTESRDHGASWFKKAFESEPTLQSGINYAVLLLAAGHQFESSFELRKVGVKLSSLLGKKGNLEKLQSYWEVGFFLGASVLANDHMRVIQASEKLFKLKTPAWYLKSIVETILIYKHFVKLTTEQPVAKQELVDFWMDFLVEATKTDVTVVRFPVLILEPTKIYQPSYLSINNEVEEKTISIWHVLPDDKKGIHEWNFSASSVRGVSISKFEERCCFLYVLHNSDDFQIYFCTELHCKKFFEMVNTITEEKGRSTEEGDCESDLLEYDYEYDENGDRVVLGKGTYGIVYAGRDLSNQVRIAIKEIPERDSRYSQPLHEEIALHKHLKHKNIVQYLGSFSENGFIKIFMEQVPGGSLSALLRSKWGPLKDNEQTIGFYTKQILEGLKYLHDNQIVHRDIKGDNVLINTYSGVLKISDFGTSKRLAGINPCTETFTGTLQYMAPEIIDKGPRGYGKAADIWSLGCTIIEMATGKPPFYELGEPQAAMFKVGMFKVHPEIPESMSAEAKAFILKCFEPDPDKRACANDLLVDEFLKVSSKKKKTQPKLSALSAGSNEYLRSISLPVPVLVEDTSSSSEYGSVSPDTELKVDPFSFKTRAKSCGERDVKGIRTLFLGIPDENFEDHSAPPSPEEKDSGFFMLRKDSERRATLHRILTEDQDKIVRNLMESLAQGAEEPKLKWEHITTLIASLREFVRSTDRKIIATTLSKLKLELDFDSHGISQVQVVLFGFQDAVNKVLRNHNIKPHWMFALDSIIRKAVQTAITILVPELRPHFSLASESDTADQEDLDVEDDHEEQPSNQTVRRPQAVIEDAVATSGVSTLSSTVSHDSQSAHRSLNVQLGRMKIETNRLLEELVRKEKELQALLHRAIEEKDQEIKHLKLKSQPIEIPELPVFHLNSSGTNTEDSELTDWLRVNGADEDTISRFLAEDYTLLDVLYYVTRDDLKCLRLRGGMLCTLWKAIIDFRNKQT

Chain of Atypical kinase COQ8A, mitochondrial (Q8NI60 whole entry): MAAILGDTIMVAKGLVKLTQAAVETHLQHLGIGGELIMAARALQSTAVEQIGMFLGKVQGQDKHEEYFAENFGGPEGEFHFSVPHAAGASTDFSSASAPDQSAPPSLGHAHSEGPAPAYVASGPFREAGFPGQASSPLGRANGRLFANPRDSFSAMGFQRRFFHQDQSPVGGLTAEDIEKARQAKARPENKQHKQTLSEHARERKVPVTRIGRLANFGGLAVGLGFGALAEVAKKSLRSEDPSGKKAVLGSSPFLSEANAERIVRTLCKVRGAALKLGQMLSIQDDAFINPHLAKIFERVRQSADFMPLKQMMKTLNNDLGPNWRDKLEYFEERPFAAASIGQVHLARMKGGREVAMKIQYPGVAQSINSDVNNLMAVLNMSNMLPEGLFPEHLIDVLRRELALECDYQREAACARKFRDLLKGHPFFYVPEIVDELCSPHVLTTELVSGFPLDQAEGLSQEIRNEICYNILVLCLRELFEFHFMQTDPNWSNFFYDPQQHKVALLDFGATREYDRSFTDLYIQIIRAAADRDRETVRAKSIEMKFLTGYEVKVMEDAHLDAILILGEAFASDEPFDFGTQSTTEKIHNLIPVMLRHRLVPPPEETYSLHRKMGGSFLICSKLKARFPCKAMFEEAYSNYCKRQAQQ
Chain of Tyrosine-protein kinase Fyn (P06241 whole entry): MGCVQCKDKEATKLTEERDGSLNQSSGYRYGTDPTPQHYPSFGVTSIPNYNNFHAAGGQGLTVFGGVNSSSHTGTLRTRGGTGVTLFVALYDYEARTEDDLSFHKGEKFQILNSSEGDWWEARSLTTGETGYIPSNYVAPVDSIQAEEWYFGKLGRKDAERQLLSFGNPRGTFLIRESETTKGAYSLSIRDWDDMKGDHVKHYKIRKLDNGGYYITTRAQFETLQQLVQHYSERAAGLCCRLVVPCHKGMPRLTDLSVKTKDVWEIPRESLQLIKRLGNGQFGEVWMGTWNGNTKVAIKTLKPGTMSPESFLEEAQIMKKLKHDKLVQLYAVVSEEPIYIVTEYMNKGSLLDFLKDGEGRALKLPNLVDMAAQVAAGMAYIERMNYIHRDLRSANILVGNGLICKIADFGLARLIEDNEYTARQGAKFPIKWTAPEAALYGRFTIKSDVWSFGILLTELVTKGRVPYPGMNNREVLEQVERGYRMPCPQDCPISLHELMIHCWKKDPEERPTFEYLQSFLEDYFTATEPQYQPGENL
Chain of Tyrosine-protein kinase ABL2 (P42684 whole entry): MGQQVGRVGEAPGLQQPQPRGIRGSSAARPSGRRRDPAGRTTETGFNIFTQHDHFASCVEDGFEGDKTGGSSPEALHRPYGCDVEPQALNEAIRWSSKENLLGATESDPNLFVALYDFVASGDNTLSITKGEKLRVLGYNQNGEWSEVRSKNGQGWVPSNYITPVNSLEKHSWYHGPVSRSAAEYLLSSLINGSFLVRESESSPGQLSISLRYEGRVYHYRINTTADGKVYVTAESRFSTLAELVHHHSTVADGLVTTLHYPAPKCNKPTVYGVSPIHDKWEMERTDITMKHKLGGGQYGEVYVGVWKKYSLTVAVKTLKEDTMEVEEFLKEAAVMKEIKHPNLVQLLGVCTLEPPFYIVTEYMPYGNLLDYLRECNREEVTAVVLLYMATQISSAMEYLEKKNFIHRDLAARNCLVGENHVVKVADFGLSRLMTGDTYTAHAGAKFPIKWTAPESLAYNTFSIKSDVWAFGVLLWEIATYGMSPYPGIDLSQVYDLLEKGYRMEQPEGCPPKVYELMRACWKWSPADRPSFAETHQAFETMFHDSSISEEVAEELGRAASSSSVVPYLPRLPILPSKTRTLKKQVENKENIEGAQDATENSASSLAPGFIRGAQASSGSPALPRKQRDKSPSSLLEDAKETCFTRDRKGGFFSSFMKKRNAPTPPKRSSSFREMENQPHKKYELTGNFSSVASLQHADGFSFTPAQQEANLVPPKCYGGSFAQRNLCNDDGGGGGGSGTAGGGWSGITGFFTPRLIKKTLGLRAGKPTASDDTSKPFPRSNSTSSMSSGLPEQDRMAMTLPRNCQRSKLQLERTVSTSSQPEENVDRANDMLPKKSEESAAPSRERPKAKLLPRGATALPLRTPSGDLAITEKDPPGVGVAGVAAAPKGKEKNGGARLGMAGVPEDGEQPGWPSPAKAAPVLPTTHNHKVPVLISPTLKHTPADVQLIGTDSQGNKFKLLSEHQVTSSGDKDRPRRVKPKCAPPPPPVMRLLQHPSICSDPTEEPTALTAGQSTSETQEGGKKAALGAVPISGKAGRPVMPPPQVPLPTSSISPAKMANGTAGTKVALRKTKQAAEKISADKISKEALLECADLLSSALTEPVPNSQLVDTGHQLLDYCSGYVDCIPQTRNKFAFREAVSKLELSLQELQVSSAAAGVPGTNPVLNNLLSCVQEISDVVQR

Row | Kd [1] | Kd [2] | Kd [3] | Kd [4] | Kd [5] | pKd [2] | pKd [4] | SMILES
1 | > 30 µM (inactive) | > 30 µM (inactive) | > 30 µM (inactive) | > 30 µM (inactive) | > 30 µM (inactive) |  |  | COCC(=O)NC/C=C/c1ccc2ncnc(Nc3ccc(Oc4ccc(C)nc4)c(C)c3)c2c1 [CP-724714]
2 | > 30 µM (inactive) | > 30 µM (inactive) | > 30 µM (inactive) | > 30 µM (inactive) | > 30 µM (inactive) |  |  | C#Cc1cccc(Nc2ncnc3cc(OC)c(OCCCCCCC(=O)NO)cc23)c1 [CUDC-101]
3 | > 30 µM (inactive) | > 30 µM (inactive) | > 30 µM (inactive) | > 30 µM (inactive) | > 30 µM (inactive) |  |  | Cc1nc2cc(-n3ncc(C(=O)c4cc5ccccc5[nH]4)c3N)ccc2[nH]1 [FGFR INHIBITOR DEBIO 1347]
4 | > 30 µM (inactive) |  | > 30 µM (inactive) | > 30 µM (inactive) | > 30 µM (inactive) | 4.91 |  | Cc1cccc(-c2nn3c(c2-c2ccnc4ccc(C(N)=O)cc24)CCC3)n1 [GALUNISERTIB]
5 | > 30 µM (inactive) | > 30 µM (inactive) | > 30 µM (inactive) | > 30 µM (inactive) | > 30 µM (inactive) |  |  | CCn1cc(-c2ccnc3[nH]c(-c4cccc(CN(C)C)c4)cc23)c(-c2ccc(NC(=O)N(C)C)cc2)n1 [GSK-1070916]
6 | > 30 µM (inactive) | > 30 µM (inactive) | > 30 µM (inactive) | > 30 µM (inactive) | > 30 µM (inactive) |  |  | COc1ccc(S(=O)(=O)N(C(C)=O)c2ccccc2/C=C/c2cc[n+]([O-])cc2)cc1 [HMN-214]
7 | > 30 µM (inactive) | > 30 µM (inactive) | > 30 µM (inactive) | > 30 µM (inactive) | > 30 µM (inactive) |  |  | CNC(=O)c1cccc2cc(Oc3ccnc4cc(OCC5(N)CC5)c(OC)cc34)ccc12 [LUCITANIB]
8 | 0.291 µM (active) | 3.01 µM (active) | 1.44 µM (active) |  | > 30 µM (inactive) |  | 5.43 | CNC(=O)c1nn(C)c2c1C(C)(C)Cc1cnc(Nc3ccc(N4CCN(C)CC4)cc3)nc1-2 [MILCICLIB]
9 | > 30 µM (inactive) | > 30 µM (inactive) | > 30 µM (inactive) | > 30 µM (inactive) | > 30 µM (inactive) |  |  | NC1(c2ccc(-c3nc4ccn5c(=O)[nH]nc5c4cc3-c3ccccc3)cc2)CCC1 [MK-2206]
10 | 0.502 µM (active) | > 30 µM (inactive) | > 30 µM (inactive) | > 30 µM (inactive) | > 30 µM (inactive) |  |  | CN(C[C@@H]1COCCO1)S(=O)(=O)Nc1ccc2ccc3ncc(-c4cnn(C)c4)cc3c(=O)c2c1 [MK-2461]
11 | > 30 µM (inactive) | > 30 µM (inactive) | > 30 µM (inactive) | > 30 µM (inactive) | > 30 µM (inactive) |  |  | Cn1cc(-c2cnc3ccc4ccc(CS(=O)(=O)NCc5ccccn5)cc4c(=O)c3c2)cn1 [MK-8033]
12 | > 30 µM (inactive) | > 30 µM (inactive) | > 30 µM (inactive) | > 30 µM (inactive) | > 30 µM (inactive) |  |  | FC(F)(F)c1ccc(/C=C/c2nc(COc3ccc(CCCCn4ccnn4)cc3)co2)cc1 [MUBRITINIB]
13 | 3.03 µM (active) | > 30 µM (inactive) | > 30 µM (inactive) | > 30 µM (inactive) | > 30 µM (inactive) |  |  | COc1ncc(-c2ccc3nccc(-c4ccnnc4)c3c2)cc1NS(=O)(=O)c1ccc(F)cc1F [OMIPALISIB]
14 | > 30 µM (inactive) | > 30 µM (inactive) | 1.23 µM (active) | 0.939 µM (active) | > 30 µM (inactive) |  |  | Cc1nc(Nc2n[nH]c3c2CN(C(=O)N[C@H](CN(C)C)c2ccccc2)C3(C)C)c2sccc2n1 [PF-03758309]
15 | > 30 µM (inactive) | > 30 µM (inactive) | > 30 µM (inactive) | > 30 µM (inactive) | > 30 µM (inactive) |  |  | Cc1cnc(NC(=O)Nc2cc(Br)c(C)cc2OC[C@@H]2CNCCO2)cn1 [RABUSERTIB]
16 | > 30 µM (inactive) | > 30 µM (inactive) | > 30 µM (inactive) | > 30 µM (inactive) | > 30 µM (inactive) |  |  | CO[C@H]1C[C@@H]2CC[C@@H](C)[C@@](O)(O2)C(=O)C(=O)N2CCCC[C@H]2C(=O)O[C@H]([C@H](C)C[C@@H]2CC[C@@H](OP(C)(C)=O)[C@H](OC)C2)CC(=O)[C@H](C)/C=C(\C)[C@@H](O)[C@@H](OC)C(=O)[C@H](C)C[C@H](C)/C=C/C=C/C=C/1C [RIDAFOROLIMUS]
17 | > 30 µM (inactive) | > 30 µM (inactive) | > 30 µM (inactive) | > 30 µM (inactive) | > 30 µM (inactive) |  |  | N#CC1(c2ccc(NC(=O)c3cccnc3NCc3ccncc3)cc2)CCCC1 [RIVOCERANIB]
18 | > 30 µM (inactive) | > 30 µM (inactive) | > 30 µM (inactive) | > 30 µM (inactive) | > 30 µM (inactive) |  |  | O=c1[nH]ccc2cc(OC3CCNCC3)ccc12 [SAR-407899 FREE BASE]
19 | > 30 µM (inactive) | > 30 µM (inactive) | > 30 µM (inactive) | > 30 µM (inactive) | > 30 µM (inactive) |  |  | Cn1cc(-c2cnn3c(N)c(Br)c([C@@H]4CCCNC4)nc23)cn1 [SCH-900776]
20 | > 30 µM (inactive) | > 30 µM (inactive) | > 30 µM (inactive) | > 30 µM (inactive) | > 30 µM (inactive) |  |  | CO[C@H]1C[C@@H]2CC[C@@H](C)[C@@](O)(O2)C(=O)C(=O)N2CCCC[C@H]2C(=O)O[C@H]([C@H](C)C[C@@H]2CC[C@@H](O)[C@H](OC)C2)CC(=O)[C@H](C)/C=C(\C)[C@@H](O)[C@@H](OC)C(=O)[C@H](C)C[C@H](C)/C=C/C=C/C=C/1C [SIROLIMUS]
21 | 0.027 µM (active) | > 30 µM (inactive) | 0.095 µM (active) | 0.422 µM (active) | > 30 µM (inactive) |  |  | CCS(=O)(=O)c1cccc(-c2cc(C(=O)NC3CCN(C)CC3)c(C)c3[nH]c4ncc(C)cc4c23)c1 [TAK-901]
22 | > 30 µM (inactive) | > 30 µM (inactive) | > 30 µM (inactive) | > 30 µM (inactive) | > 30 µM (inactive) |  |  | CO[C@H]1C[C@@H]2CC[C@@H](C)[C@@](O)(O2)C(=O)C(=O)N2CCCC[C@H]2C(=O)O[C@H]([C@H](C)C[C@@H]2CC[C@@H](OC(=O)C(C)(CO)CO)[C@H](OC)C2)CC(=O)[C@H](C)/C=C(\C)[C@@H](O)[C@@H](OC)C(=O)[C@H](C)C[C@H](C)/C=C/C=C/C=C/1C [TEMSIROLIMUS]

Row | SMILES | Kd [1] | Kd [2] | Kd [3] | Kd [4] | Kd [5] | pKd [2] | pKd [4]
23 | O=C(Nc1nc2cccc(-c3ccc(CN4CCS(=O)(=O)CC4)cc3)n2n1)C1CC1 [FILGOTINIB] | > 30 µM (inactive) | > 30 µM (inactive) | > 30 µM (inactive) | > 30 µM (inactive) | > 30 µM (inactive) |  | 
24 | O=C(Nc1cc(C(F)(F)F)cc(C(F)(F)F)c1)c1cc(Cl)ccc1O [IMD-0354] | > 30 µM (inactive) | > 30 µM (inactive) | > 30 µM (inactive) | > 30 µM (inactive) | > 30 µM (inactive) |  | 
25 | CCCCCCCCCCCCCCCCCCOP(=O)([O-])OC1CC[N+](C)(C)CC1 [PERIFOSINE] | > 30 µM (inactive) | > 30 µM (inactive) | > 30 µM (inactive) | > 30 µM (inactive) | > 30 µM (inactive) |  | 
